Measurements taken from US20190358181A1, “METHODS FOR AUTISM SPECTRUM DISORDER PHARMACOTHERAPY” (priority 2017, published 2019).

Key:
[1] = Toxicity and safety monitoring, adverse events graded by CTCAE v4.03, SAT-1 trial; type: in vivo, human
Protocol: Immediately before the infusion, height and weight were recorded, vital signs and capillary oxygen saturation (pulse oximetry) measured, physical and neurological examinations were conducted, and urine and blood for safety monitoring, pharmacology, and metabolomics was collected.
For the test dose, 50 mg of suramin hexasodium (Bayer Pharmaceuticals, Inc.) in 5 mL of saline (experimental arm, 5 patients), or 5 mL of saline only (control arm, 5 patients) were given by slow intravenous (IV) push over 3 minutes, followed by a 10 mL flush of saline. One hour after the test dose, vital signs were repeated and a single infusion of either suramin (20 mg/kg, minus the 50 mg test dose, in 50 mL, up to a maximum of 1 gram) or saline (50 mL IV) was given over 30 minutes, followed by a 10 mL flush of saline.
Suramin pharmacokinetics was assessed by serum isolation at the 4 time points immediately before and after the infusion. […] Unexpected and adverse events were recorded as they occurred and graded in severity according to the National Cancer Institute Common Terminology Criteria for Adverse Events v4.03 (CTCAE) scale. Additional pharmacovigilence monitoring included daily scripted phone calls in the first week, then 4 weekly calls until the exit examinations at 6 weeks.
Paired, non-parametric analysis was by Wilcoxon signed-rank sum test. Categorical data, such as the presence or absence of adverse events or historical symptoms was analyzed by Fisher's exact test. Two-way ANOVA (treatment×time), with Sidak post hoc correction, was used to analyze the 6-week summaries captured by the ADOS, CGI, and additional blood and urine safety analysis. Cohen's d—calculated as the mean difference of the paired, within-subject scores before and after treatment, divided by the standard deviation of the differences—was used as an estimate of effect size.

[2] = tested on: males with ASD; experiment: Expressive One Word Picture Vocabulary Test (EOWPVT), SAT-1 trial; type: in vivo, human
Protocol: Two observational examinations were performed by a clinician at 3 time points: baseline (56±8 days; mean±SEM; before the infusion), 2-days post-infusion, and 6-weeks post-infusion. The two examiner-based metrics were the Autism Diagnostic Observation Schedule, 2nd edition (ADOS-2) with video and audio files recorded on 3 cameras, and the Expressive One Word Picture Vocabulary Testing (EOWPVT). Both of these observational metrics were administered by a trained and certified examiner using approved test materials. Three standardized questionnaires were completed by parents at 3 time points: baseline, 7-days post-infusion, and 6-weeks post-infusion. The three standardized questionnaires completed by parents were the 58-question Aberrant Behavior Checklist (ABC), the 75-item Autism Treatment Evaluation Checklist (ATEC), and the 33-item repetitive behavior questionnaire (RBQ). Parents were asked to complete these three instruments with reference to how their child behaved in the previous 7 days. […]
Behavioral and neurological effects of treatment were assessed primarily by the examiner-based ADOS-2 protocol scores and standardized vocabulary testing (Expressive One Word Picture Vocabulary Test, EOWPVT), with secondary evaluation via parent-based assessments (Aberrant Behavior Checklist (ABC) scores, Autism Treatment Evaluation Checklist (ATEC) scores, Clinical Global Impression of Improvement (CGI) scores, and Repetitive Behavior Questionnaire (RBQ) scores). […] Examiner-based outcomes (ADOS and EOWPVT) were assessed at 2-days and 6-weeks after the infusion. Parent-based outcomes (ABC, ATEC, CGI, and RBQ) were assessed at 7-days and 6-weeks after the infusion. […]
Each child was used as their own control to examine before and after treatment effects from Example 1 in a paired t-test design for the analysis of the ADOS, EOWPVT, ABC, ATEC, RBQ (FIGS. 4-11 show individual analyses), and blood and urine safety data (FIGS. 2 and 3 show individual analyses). […] Categorical data, such as the presence or absence of adverse events or historical symptoms was analyzed by Fisher's exact test. […]

[3] = EOWPVT Vocabulary, 45 days after treatment

Cc1ccc(C(=O)Nc2ccc(S(=O)(=O)O)c3cc(S(=O)(=O)O)cc(S(=O)(=O)O)c23)cc1NC(=O)c1cccc(NC(=O)Nc2cccc(C(=O)Nc3cc(C(=O)Nc4ccc(S(=O)(=O)O)c5cc(S(=O)(=O)O)cc(S(=O)(=O)O)c45)ccc3C)c2)c1 [Suramin, suramin]
Adverse or Unanticipated Events, Suramin (N = 5) ([1]; Asymptomatic rash): 5 | CTCAE Grade ([1]; Asymptomatic rash): 1 | Adverse or Unanticipated Events, Suramin (N = 5) ([1]; Emesis x 1): 1^4 | CTCAE Grade ([1]; Emesis x 1): 1 | Adverse or Unanticipated Events, Suramin (N = 5) ([1]; Enuresis): 1^9 | CTCAE Grade ([1]; Enuresis): 1 | Adverse or Unanticipated Events, Suramin (N = 5) ([1]; Headache): 1 | CTCAE Grade ([1]; Headache): 1 | Adverse or Unanticipated Events, Suramin (N = 5) ([1]; Hyperactivity): 2^6 | CTCAE Grade ([1]; Hyperactivity): 1 | Adverse or Unanticipated Events, Suramin (N = 5) ([1]; Hypoglycemia): 1 | CTCAE Grade ([1]; Hypoglycemia): 2 | Adverse or Unanticipated Events, Suramin (N = 5) ([1]; Leukocytosis): 0 | Adverse or Unanticipated Events, Suramin (N = 5) ([1]; Peripheral neuropathy): 0 | Adverse or Unanticipated Events, Suramin (N = 5) ([1]; Total): 13 | Adverse or Unanticipated Events, Suramin (N = 5) ([1]; Total, excluding rash): 8 | Adverse or Unanticipated Events, Suramin (N = 5) ([1]; Uncomplicated URI): 2 | CTCAE Grade ([1]; Uncomplicated URI): 1 | serious toxicities (CTCAE grades 3-5) ([1]; extensive monitoring, single 20 mg/kg IV): no serious toxicities | extent of morbilliform rash ([1]; five children who received suramin): 1%-20% | time of rash peak after the infusion ([1]; in vivo): 1 days | time to spontaneous disappearance of rash ([1]; in vivo): 2 to 4 days | free cortisol, hemoglobin, white blood cell count (WBC), platelets, liver transaminases, creatinine, and urine protein ([1]; suramin vs placebo (FIGS. 2 and 3)): showed no differences | Difference from baseline (mean ± sd) [2, 3]: −4.2 ± 8.3 | d (Cohen's d) [2, 3]: −0.51 | EOWPVT scores ([2]; after single 20 mg/kg IV dose): did not change
